In patent US7358239B2, “Pyrrolidinyl, piperidinyl or homopiperidinyl substituted (benzodioxan, benzofuran or benzopyran) derivatives” (Janssen Pharmaceutica, N.V., priority 1999, dated 2008):

Test system: fundus of the stomach (gastric tone)
Test: Gastric tone measured by an electronic barostat in conscious dogs
Assay type: in vivo
Settings: mean maximal change in gastric volume on relaxation of the fundus; S.C. administration, 0.63 mg/kg; 1 hour observation period; constant pressure 6 mmHg; conscious female beagle dogs
Description: C.1. Gastric Tone Measured by an Electronic Barostat in Conscious Dogs Gastric tone cannot be measured by manometric methods. Therefore an electronic barostat was used. This allows the study of the physiological pattern and regulation of gastric tone in conscious dogs and the influence of test-compounds on this tone. The barostat consists of an air injection system which is connected by a double-lumen 14-French polyvinyl tube to an ultrathin flaccid polyethylene bag (maximal volume: ±700 ml). Variations in gastric tone were measured by recording changes in the volume of air within an intragastric bag, maintained at a constant pressure. The barostat maintains a constant pressure (preselected) within a flaccid air-filled bag introduced into the stomach, changing the volume of air within, the bag by an electronic feedback system. Thus, the barostat measures gastric motor activity (contraction or relaxation) as changes in intragastric volume (decrease or increase resp.) at a constant intragastric pressure. The barostat consists of a strain gauge linked by an electronic relay to an air injection-aspiration system. Both the strain gauge and the injection system are connected by means of double-lumen polyvinyl tube to an ultrathin polyethylene bag. […] Test compounds were screened, i.e. changes in gastric volume were measured, usually at 0.63 mg/kg. […]

[1(R),[B-(3α,4α)]]-1-[1-[(3,4-dihydro-2H-1-benzopyran-2-yl)methyl]-3-methoxy-4-piperidinyl]-2(1H)pyrimidinone [Co. No. 2]
Maximum change in volume: 9 mL
